PubChem BioAssay (NCI)
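Dose response: 5 concentrations. Exposure: 48 h. Format: 96-well plates. Endpoint: linear interpolation; highest concentration if not reached. TGI is the concentration that stops growth completely.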

How the values were obtained:
Assay in all cases: NCI tumour cell line growth inhibition, 48 h
UACC-62 melanoma = system: UACC-62 melanoma
SN12C renal = system: SN12C renal
HL-60(TB) leukemia = system: HL-60(TB) leukemia
BT-549 breast = system: BT-549 breast
MDA-MB-231 breast = system: MDA-MB-231 breast
T-47D breast = system: T-47D breast
RXF 393 renal = system: RXF 393 renal
SNB-75 CNS = system: SNB-75 CNS
UACC-257 melanoma = system: UACC-257 melanoma
SK-MEL-5 melanoma = system: SK-MEL-5 melanoma
SK-MEL-2 melanoma = system: SK-MEL-2 melanoma
RPMI-8226 leukemia = system: RPMI-8226 leukemia
UO-31 renal = system: UO-31 renal
MDA-MB-435 = system: MDA-MB-435
NCI-H226 lung = system: NCI-H226 lung
SF-295 CNS = system: SF-295 CNS
HCC-2998 colon = system: HCC-2998 colon
COLO 205 colon = system: COLO 205 colon
DU-145 prostate = system: DU-145 prostate
OVCAR-5 ovarian = system: OVCAR-5 ovarian

Compound | TGI (UACC-62 melanoma) [µM] | TGI (SN12C renal) [µM] | TGI (HL-60(TB) leukemia) [µM] | TGI (BT-549 breast) [µM] | TGI (MDA-MB-231 breast) [µM] | TGI (T-47D breast) [µM] | TGI (RXF 393 renal) [µM] | TGI (SNB-75 CNS) [µM] | TGI (UACC-257 melanoma) [µM] | TGI (SK-MEL-5 melanoma) [µM] | TGI (SK-MEL-2 melanoma) [µM] | TGI (RPMI-8226 leukemia) [µM] | TGI (UO-31 renal) [µM] | TGI (MDA-MB-435) [µM] | TGI (NCI-H226 lung) [µM] | TGI (SF-295 CNS) [µM] | TGI (HCC-2998 colon) [µM] | TGI (COLO 205 colon) [µM] | TGI (DU-145 prostate) [µM] | TGI (OVCAR-5 ovarian) [µM]
COCn1c(C)c(C)c2c(=O)oc(N(C)C)nc21 | > 100 | > 100 | > 100 | > 100 | > 100 | > 100 | > 100 | > 100 | > 100 | > 100 | > 100 | > 100 | > 100 | > 100 | > 100 | > 100 | > 100 | > 100 | > 100 | > 100
CCOC(=O)C(NCc1cccc(C(F)(F)F)c1)(NC(=O)CC)C(F)(F)F (centres undefined) | > 100 | > 100 | > 100 | > 100 | > 100 | > 100 | > 100 | > 100 | > 100 | > 100 | > 100 | > 100 | > 100 | > 100 | > 100 | > 100 | > 100 | > 100 | > 100 | > 100
Cc1ccc2[nH]c3c(c2c1)C1CCC(C(C)(C)C)CC1C1C(=O)N(c2ccc4c(c2)OCO4)C(=O)C31 (centres undefined) | 22.9 | 4.96 | 11.9 | 20.6 | 5.11 | 3.94 | 4.11 | – | 23.7 | 22.9 | 19.3 | 14.7 | 7.28 | 20.5 | 8.58 | 9.85 | 5.84 | 12.5 | 9.88 | 13.6
Cc1nc2c(o1)C(=O)c1ccccc1C2=Nc1ccc(N2CCOCC2)cc1 | 3.73 | 10.2 | 7.24 | 5.73 | 8.84 | 19 | 2.97 | 5.03 | 4.64 | 3.2 | 9.63 | 25.5 | 10.2 | 3.58 | 42.1 | 5.98 | 99.8 | 55.5 | 7.81 | 33.6
COc1ccc(/C(CC2OC(=O)c3ccccc32)=N\NC(=O)C[N+](C)(C)C)cc1 (centres undefined) | 40.1 | > 100 | > 100 | 77.1 | > 100 | > 100 | 77.6 | 75.6 | 91.8 | 59.9 | 94.2 | 39.6 | 79.6 | 71.9 | 62.6 | > 100 | 30.9 | 71 | 63.4 | > 100
c1ccc(C(=NNc2cnc3ccccc3n2)c2ccccn2)cc1 | 20.2 | 24 | 12.3 | 24.5 | 26.9 | 33.5 | 21.5 | 31.4 | 17.5 | 16 | 26.2 | > 36.8 | 3.25 | > 47.6 | 40.6 | 12.8 | 19.9 | 24.6 | > 61.3 | 27.1
CC(=O)OCC(OC(C)=O)C(OC(C)=O)C(OC(C)=O)C(C=NN(C(C)=O)S(=O)(=O)c1ccc(/C=C2\NC(=O)NC2=O)cc1)OC(C)=O (centres undefined) | > 100 | > 100 | – | > 100 | > 100 | > 100 | > 100 | > 100 | > 100 | > 100 | > 100 | > 100 | > 100 | > 100 | > 100 | > 100 | > 100 | > 100 | > 100 | > 100
COC(=O)/C=C\C(C#N)(C#N)N=Cc1ccc(Br)s1 | 24.9 | 35.1 | 5.04 | 16.8 | 4.51 | > 30.6 | 4.87 | 29.4 | 28.6 | 27.4 | 33.2 | 7.11 | 7.18 | 13.9 | 12.4 | 33 | 34.4 | 6.02 | 24.5 | 31.5
NS(=O)(=O)c1ccc(Nc2c3ccccc3nc3c(C(=O)NCCO)cccc23)cc1 | 0.303 | 0.557 | > 1 | 0.311 | 0.362 | 0.169 | 0.237 | – | 0.315 | 0.221 | 0.334 | 0.337 | 0.532 | 0.513 | 0.296 | 0.605 | 0.333 | 0.206 | 0.586 | 0.358
CNC(=O)CN(C)C(=O)CCC(=O)N(C)C | > 100 | > 100 | > 100 | > 100 | > 100 | > 100 | – | > 100 | > 100 | > 100 | > 100 | > 100 | > 100 | > 100 | > 100 | > 100 | > 100 | > 100 | > 100 | > 100
COC1CC(NC(=O)C(F)(F)F)C(OC(C)=O)C(C)O1 (centres undefined) | > 100 | > 100 | > 100 | > 100 | > 100 | > 100 | > 100 | > 100 | > 100 | > 100 | > 100 | > 100 | > 100 | > 100 | > 100 | > 100 | > 100 | > 100 | > 100 | > 100
CN1CCN(CCCCN2c3ccccc3Sc3cc(N=[N+]=[N-])ccc32)CC1 | 3.92 | 6.46 | 6.08 | 21.9 | 4.14 | 31.9 | 9.83 | 10.1 | 3.89 | 3.04 | 5.04 | 5.88 | 3.76 | 3.17 | 12.6 | 5.65 | 2.92 | 3.25 | 15.1 | 25.8
COc1cc(Nc2nc3ccc(C(F)(F)F)cc3nc2C(=O)O)cc(OC)c1OC | 38.2 | 38.1 | > 100 | 37.9 | 53.9 | 78.3 | 54 | > 100 | 43 | > 100 | 45.3 | 91.3 | 33.8 | 71.1 | 40.6 | 81.9 | 34.5 | 34.6 | 80.6 | > 100
COc1ccc(-n2c(N)c(C#N)c(C#N)c2-c2ccccc2)cc1 | > 100 | > 100 | > 100 | > 100 | > 100 | > 100 | > 100 | 68.6 | > 100 | > 100 | > 100 | > 100 | > 100 | > 100 | > 100 | > 100 | > 100 | > 100 | > 100 | > 100
CC(=O)O[C@H]1C(=O)[C@@]2(C)[C@H]([C@H](OC(=O)c3ccccc3)[C@]3(O)C[C@H](OC(=O)[C@H](O)[C@@H](NC(=O)C(C)(C)C)c4ccccc4)C(C)=C1C3(C)C)[C@]1(OC(C)=O)CO[C@@H]1C[C@@H]2O | > 10 | > 10 | 0.0791 | > 10 | > 10 | > 10 | 2.64 | 2.19 | > 10 | > 10 | > 3.28 | > 10 | – | 0.034 | > 10 | 1.61 | 0.44 | 0.251 | 0.839 | > 8.6
O=S(=O)(c1ccccc1)C1(CCC2OCCO2)C=CC2(CC1)OCCO2 (centres undefined) | > 100 | > 100 | > 100 | > 100 | > 100 | > 100 | – | > 100 | > 100 | > 100 | – | > 100 | > 100 | > 100 | > 100 | > 100 | > 100 | > 100 | > 100 | > 100
N#Cc1nc(C(CO)N(Cc2ccccc2)C(=O)O)oc1N (centres undefined) | > 100 | > 100 | > 100 | > 100 | > 100 | > 100 | > 100 | > 100 | > 100 | > 100 | > 100 | > 100 | > 100 | > 100 | > 100 | > 100 | > 100 | > 100 | > 100 | > 100
CC(=N\N=C\c1ccccn1)/C(C)=N/N=C(C)/C(C)=N/N=C/c1ccccn1 | – | > 100 | > 100 | > 100 | > 100 | > 100 | > 100 | > 100 | > 100 | > 100 | > 100 | > 100 | > 100 | > 100 | > 100 | > 100 | > 100 | > 100 | > 100 | > 100
CN(C)CCCCN1c2ccccc2Sc2ccc(C(=O)c3ccccc3)cc21 | 6.39 | 9.84 | 3.97 | 18.8 | 5.2 | 13 | 4.17 | 6.92 | 3.76 | 3.42 | 6.59 | > 100 | 10 | 3.51 | 22.8 | 4.82 | 3.97 | 3.13 | 10.7 | 13.8
O=c1[nH]cnc2c1ncn2[C@@H]1C[C@H]1CO | > 100 | > 100 | > 100 | > 100 | > 100 | > 100 | > 100 | > 100 | > 100 | > 100 | > 100 | > 100 | > 100 | > 100 | > 100 | – | > 100 | > 100 | > 100 | > 100
Cc1ccc(C)c2c1CC(Cc1ccccc1C(=O)O)C2=O (centres undefined) | > 100 | > 100 | > 100 | > 100 | > 100 | > 100 | > 100 | > 100 | > 100 | > 100 | > 100 | – | > 100 | > 100 | > 100 | > 100 | > 100 | > 100 | > 100 | > 100
Cc1ccc(NC2=N/C(=C/c3ccccc3)C(Cl)=N2)cc1 | > 100 | > 100 | > 63.3 | > 100 | > 100 | > 100 | > 100 | > 100 | > 100 | > 100 | > 100 | > 100 | > 100 | > 100 | > 100 | > 100 | > 100 | > 100 | > 100 | > 100
COC(=O)c1c2c(cc3c1CC1(Cc4cc5c(cc4C1=O)CCC5)C3)CCC2 (centres undefined) | > 100 | > 100 | > 100 | > 100 | > 100 | > 100 | – | > 100 | > 100 | 54.4 | > 100 | 57.7 | > 100 | > 100 | > 100 | > 100 | > 100 | > 100 | > 100 | > 100
